Assay results as given in ChEMBL document CHEMBL1140417, “Total and semisynthesis and in vitro studies of both enantiomers of 20-fluorocamptothecin” (Bioorg Med Chem Lett, 2005).
Activity calls are given as the source filed them. The calls are words filed in the database; no cut-off is given here.

Target: T1, DNA topoisomerase 1 (Homo sapiens) (UniProt P11387)
T1 sequence (whole entry): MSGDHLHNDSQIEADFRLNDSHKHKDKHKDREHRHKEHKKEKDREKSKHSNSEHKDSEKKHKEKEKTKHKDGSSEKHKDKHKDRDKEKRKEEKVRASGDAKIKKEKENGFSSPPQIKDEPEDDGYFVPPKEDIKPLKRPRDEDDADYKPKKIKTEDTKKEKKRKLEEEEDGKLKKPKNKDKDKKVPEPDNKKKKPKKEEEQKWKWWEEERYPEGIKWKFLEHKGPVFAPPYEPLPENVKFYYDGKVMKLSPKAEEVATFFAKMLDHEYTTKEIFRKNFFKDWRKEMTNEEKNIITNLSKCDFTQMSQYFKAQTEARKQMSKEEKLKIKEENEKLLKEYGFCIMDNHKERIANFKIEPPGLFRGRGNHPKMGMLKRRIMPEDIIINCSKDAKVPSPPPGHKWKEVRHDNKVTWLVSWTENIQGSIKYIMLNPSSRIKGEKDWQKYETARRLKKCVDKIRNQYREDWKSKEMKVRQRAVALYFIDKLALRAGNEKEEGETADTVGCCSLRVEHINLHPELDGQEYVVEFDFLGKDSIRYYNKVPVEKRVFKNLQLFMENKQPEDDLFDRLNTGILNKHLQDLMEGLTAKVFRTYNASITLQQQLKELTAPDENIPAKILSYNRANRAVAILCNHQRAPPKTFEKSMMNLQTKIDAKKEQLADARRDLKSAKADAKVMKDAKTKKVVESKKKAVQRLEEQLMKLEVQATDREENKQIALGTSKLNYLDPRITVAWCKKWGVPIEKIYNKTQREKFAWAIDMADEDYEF
Test: Inhibition of topoisomerase-1 at 100 uM

Activity | Compound
inactive | CC[C@]1(F)C(=O)OCc2c1cc1n(c2=O)Cc2cc3c4c(ccc3nc2-1)OCO4
Active | CC[C@@]1(F)C(=O)OCc2c1cc1n(c2=O)Cc2cc3ccccc3nc2-1
inactive | CC[C@]1(F)C(=O)OCc2c1cc1n(c2=O)Cc2c-1nc1ccc(O)cc1c2[Si](C)(C)C(C)(C)C
inactive | CC[C@]1(F)C(=O)OCc2c1cc1n(c2=O)Cc2cc3cc4c(cc3nc2-1)OCO4
inactive | CC[C@]1(F)C(=O)OCc2c1cc1n(c2=O)Cc2cc3ccccc3nc2-1
inactive | CC[C@]1(F)C(=O)OCc2c1cc1n(c2=O)Cc2cc3cc(F)ccc3nc2-1
